Like-named read-outs stand apart in the source and are kept apart here.
What was measured:
4-HPPD = biological target: T1, 4-HPPD (Rattus norvegicus, UniProt P32755); test: Determination of 4-HPPD activity by oxygen consumption (SDR SensorDish Reader) in rat liver cytosol; assay type: biochemical, male Wistar rat
T1 construct: from tissue; host or cells: liver cytosol of a male Wistar rat
Method: 4-HPPD activity was evaluated in the liver cytosol of a male Wistar rat by monitoring oxygen consumption through the use of the SDR SensorDish® Reader (Presens, Precision Sensing GmbH, Regensburg, Germany). Briefly, a special test tube with an oxygen sensor placed on the bottom was filled with 0.2 M sodium phosphate buffer with pH 7.4, 1.7 mM ascorbic acid (used as a cofactor) and 10.92 mg of rat enzyme preparation (4-HPPD source). The mixture was equilibrated at 37°C for 5 min. and the reaction was started by the addition of substrate ([…], Sigma-Aldrich cod. SAE0003). […] The percentage of inhibition of enzymatic activity was calculated as the ratio of the slopes (decrease of the concentration of O2 (µmol/L) per min.) of the samples containing the inhibitor versus the untreated controls corrected with the negative control values. The IC50 values were calculated by means of regression analysis in the range of tested concentrations by means of the Origin® - Data Analysis and Graphing software using a sigmoid type interpolating curve and plotting on the x-axis the concentrations of the compounds and on the y-axis oxygen consumption values expressed as a percentage of 4-HPPD inhibition, the reduction of oxygen being correlated with inhibition of the enzyme.
4-HPPD inhibition was determined in the cytosolic extract of rat liver (source of the enzyme), by evaluation of enzymatic consumption of oxygen using the SDR SensorDish ® Reader, and was expressed as an IC50 value.

[1] = test system: primary human fibroblasts (HFb); test: in vitro; assay type: cell-based
Method: (§1) 12×10^4 primary human fibroblasts (ATCC, cat PCS-201-012) were treated with compounds at various concentrations (10^-7 M, 10^-6 M, 10^-5 M, 10^-4 M, 10^-3 M) for 24 and 144 h. HFb were cultured as described in [21]. Cellular viability was quantified by the MTT assay (Sigma-Aldrich cod. M5655) as described in [22]. Controls were performed treating the cells with vehicle (DMSO) alone. Calculation of LD50 was performed by means of the Origin® - Data Analysis and Graphing software using a sigmoid type interpolating curve.
(§2) LD50 was evaluated in vitro using the MTT cell viability assay for the first time on human cells, in particular on primary human fibroblasts (HFb). […] Intracellular tyrosine was measured in HFb by LC-MS-MS analysis.

human fibroblasts (HFb) = test: Tyrosine dosage: intracellular tyrosine in HFb by LC-MS-MS; assay type: cell-based; settings: for slope of dose-response curve of intracellular tyrosine: tyrosine ng in 9×10^4 cells versus concentration, Figure 3A
Method: Intracellular tyrosine was calculated in HFb (9×10^4 cells/well) treated for 72 h with the compounds under assessment at various concentrations (10^-8, 10^-7, 10^-6 and 10^-5 M); controls were performed using the carrier at the concentration corresponding to the highest dose of the compound under assessment. At the end of treatment, the cells were recovered by scraping in the presence of norvaline (10^-3 M, used as internal standard, Sigma-Aldrich cod. N7627) and cold methanol (40 µL, Sigma-Aldrich cod. 34860), and subsequently lysed by cycles of freezing/thawing in a bath of dry ice/nitrogen. The lysate was centrifuged (6000g for 5 min) and the supernatant was then recovered, evaporated and re-suspended with 100 µL of 0.05% formic acid. Each sample was analysed by LC-MS-MS. In particular, the analysis was performed with a chromatographic instrument manufactured by Varian (Varian Inc.) run by the software Varian MS Workstation System Control Vers. […] Subsequently, the concentration of each compound was correlated with the amount of intracellular tyrosine contained in 9×10^4 cells and the resulting dose-response curve was obtained using the Origin® - Data Analysis and Graphing software by means of a linear type interpolating curve.
as §2

[2] = alkaptonuria patients, over the course of 3 years; cited from earlier work
in vitro = assay type: cell-based; settings: after 144 h of treatment, concentration 1 mM; read-out: viability of HFb
Method: as §1, §2

[3] = rat liver cytosol, oxygen consumption, read-out: IC50
[4] = rat liver cytosol, oxygen consumption, read-out: IC50 (4-HPPD inhibitory activity)
[5] = rat liver cytosol, oxygen consumption

T1 sequence (P32755 whole entry): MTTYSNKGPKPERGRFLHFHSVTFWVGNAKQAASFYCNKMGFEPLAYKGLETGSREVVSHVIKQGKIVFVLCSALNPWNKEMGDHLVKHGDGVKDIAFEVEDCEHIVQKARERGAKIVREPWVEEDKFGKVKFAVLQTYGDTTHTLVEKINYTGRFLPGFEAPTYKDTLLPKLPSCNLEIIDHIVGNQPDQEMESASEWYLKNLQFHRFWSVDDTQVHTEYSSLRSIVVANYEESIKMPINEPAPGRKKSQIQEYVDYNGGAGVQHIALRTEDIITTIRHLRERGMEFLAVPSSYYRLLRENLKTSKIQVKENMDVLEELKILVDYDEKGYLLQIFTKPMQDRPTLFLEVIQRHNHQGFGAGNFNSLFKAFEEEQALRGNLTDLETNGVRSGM

SMILES: CS(=O)(=O)c1ccc(C(=O)C2C(=O)CCCC2=O)c([N+](=O)[O-])c1 [Compound 4, 2-(4-Methylsulfonyl-2-nitrobenzoyl)-cyclohexane-1,3-dione]
- IC50 (4-HPPD; [3]): 36.7 ± 9.7 nM
- IC50 (4-HPPD; [4]): 36.7 nM
- LD50 24 hours ([1]; HFb, MTT, 24 hours treatment): 1.1 ± 0.1 mM
- LD50 144 hours ([1]; HFb, MTT, 144 hours treatment): >1 mM [c]
- tyrosine level lower than in the control (human fibroblasts (HFb); 72 h, highest inhibitor concentration, p<0.01): about 14%
- intracellular tyrosine levels higher than in the control group (human fibroblasts (HFb); 72 h, lowest inhibitor concentration analysed, p<0.01): about 17%

SMILES: O=C1CCCC(=O)C1C(=O)c1ccc(C(F)(F)F)cc1[N+](=O)[O-] [Compound 1, 2-(2-nitro-4-(trifluoromethyl)benzoyl)cyclohexane-1,3-dione, reference compound]
- LD50 24 hours ([1]; human, 24 h): >1 mM [c]
- LD50 at 24 h ([1]; human, 24 h): > 10^-3 M
- LD50 144 hours ([1]; human, 144 h): ~1 mM
- LD50 at 144 h ([1]; human, 144 h): 10^-3 M
- intracellular tyrosine increased compared to untreated HFb (human fibroblasts (HFb); 72 h, concentration 10^-5 M): ~32%
- intracellular tyrosine increased compared to untreated HFb (human fibroblasts (HFb); 72 h, concentration 10^-6 M): about 21%
- slope of dose-response curve of intracellular tyrosine (human fibroblasts (HFb); 72 h): 5.47
- reduction of HGA in urine and plasma [2]: 95%

SMILES: CC1(C)C(Cl)C(=O)C(C(=O)c2ccccc2)C(=O)C1Cl (centres unmarked) [Compound 11, 2-Benzoyl-4,6-dichloro-5,5-dimethyl-cyclohexane-1,3-dione]
- IC50 (4-HPPD; [3]): 192 ± 2 nM
- LD50 24 hours ([1]; human, 24 h): >1 mM [c]
- LD50 144 hours ([1]; human, 144 h): 0.29 ± 0.08 mM

SMILES: CC1(C)CC(=O)C(C(=O)c2ccc([N+](=O)[O-])cc2Cl)C(=O)C1 [Compound 6, 2-(2-chloro-4-nitro-benzoyl)-5,5-dimethyl-cyclohexane-1,3-dione]
- residual activity of the enzyme (4-HPPD; rat liver cytosol 4-HPPD): ~30%
- IC50 (4-HPPD; [3]): 36.4 ± 9.3 nM
- IC50 (4-HPPD; rat liver cytosol, read-out: IC50): ~36.4 nM
- viability at 144 h, 1 mM (in vitro): ~75%
- LD50 24 hours ([1]; human, 24 h): >1 mM [c]
- LD50 144 hours ([1]; human, 144 h): >1 mM [c]
- intracellular tyrosine accumulation lower than that found for compound 1 (human fibroblasts (HFb); highest concentration tested, treatment for three days, p<0.01): about 7%

SMILES: CC1(C)CC(=O)C(C(=O)c2ccc(C(F)(F)F)cc2Cl)C(=O)C1 [Compound 14, 2-(2-Chloro-4-trifluoromethylbenzoyl)-5,5-dimethyl-cyclohexane-1,3-dione]
- IC50 (4-HPPD; [3]): 10500 ± 3700 nM
- cytotoxicity (in words) [1]: not cytotoxic

SMILES: CS(=O)(=O)c1ccc(C(=O)C2C(=O)C(O)CC(O)C2=O)c(Cl)c1COCC(F)(F)F (centres unmarked) [Compound 2, 2-[2-Chloro-4-methylsulfonyl-3-(2,2,2-trifluoroetoxyimethyl)benzoyl]-4,6-dihydroxy-cyclohexane-1,3-dione]
- IC50 (4-HPPD; [3]): 227 ± 9 nM
- LD50 24 hours ([1]; human, 24 h): 0.48 ± 0.04 mM
- LD50 144 hours ([1]; human, 144 h): 0.48 ± 0.03 mM

SMILES: CC1(C)CC(=O)C(C(=O)c2ccccc2)C(=O)C1 [Compound 9, 2-Benzoyl-5,5-dimethyl-cyclohexane-1,3-dione]
- IC50 (4-HPPD; [5]): no inhibition
- LD50 24 hours ([1]; human, 24 h): >1 mM [c]
- LD50 144 hours ([1]; human, 144 h): >1 mM [c]

SMILES: CC1(C)CC(=O)C(C(=O)c2ccccc2)C(=O)C1Cl (centres unmarked) [Compound 8, 2-Benzoyl-4-chloro-5,5-dimethyl-cyclohexane-1,3-dione]
- IC50 (4-HPPD; [5]): no inhibition
- LD50 24 hours ([1]; human, 24 h): >1 mM [c]
- LD50 144 hours ([1]; human, 144 h): >1 mM [c]

SMILES: O=C1CCC(c2ccccc2)C(=O)C1C(=O)c1ccc(Cl)cc1Cl (centres unmarked) [Compound 13, 2-(2,4-dichlorobenzoyl) -4-phenyl-cyclohexane-1,3-dione]
- IC50 (4-HPPD; [3]): 279 ± 6 nM
- LD50 24 hours ([1]; human, 24 h): >1 mM [c]
- LD50 144 hours ([1]; human, 144 h): 0.36 ± 0.15 mM

SMILES: CS(=O)(=O)c1ccc(C(=O)C2C(=O)CCCC2=O)c(Cl)c1COCC(F)(F)F [Compound 3, 2-[2-Chloro-4-methylsulfonyl-3-(2,2,2-trifluoroetoxymethyl)benzoyl]cyclohexane-1,3-dione]
- IC50 (4-HPPD; [3]): 152 ± 6 nM
- IC50 (4-HPPD; [4]): 152 nM
- LD50 24 hours ([1]; HFb, MTT, 24 hours treatment): >1 mM [c]
- LD50 144 hours ([1]; HFb, MTT, 144 hours treatment): >1 mM [c]
- LD50 ([1]; HFb, treatment time not given): greater than 10^-3 M
- slope of dose-response curve of intracellular tyrosine (human fibroblasts (HFb); 72 h): 1.89

SMILES: CS(=O)(=O)c1cc(C(F)(F)F)ccc1C(=O)c1cnoc1C1CC1 [Compound 5]
- IC50 (4-HPPD): 399 ± 19 nM
- LD50 24 hours ([1]; HFb, MTT, 24 hours treatment): >1 mM [c]
- LD50 144 hours ([1]; HFb, MTT, 144 hours treatment): 0.11 ± 0.07 mM

SMILES: CC1(C)CC(=O)C(C(=O)c2ccc(C(F)(F)F)cc2[N+](=O)[O-])C(=O)C1 [Compound 15, 2-(2-Nitro-4-trifluoromethylbenzoyl)-5,5-dimethyl-cyclohexane-1,3-dione]
- IC50 (4-HPPD): 61.6 ± 7.4 nM
- cytotoxicity (in words) ([1]; HFb, LD50 24 h): not cytotoxic
- LD50 24 hours ([1]; HFb, MTT, 24 hours treatment): > 0.01 mM

SMILES: COC(=O)C1C(=O)C(C(=O)c2ccc([N+](=O)[O-])cc2)C(=O)CC1(C)C (centres unmarked) [Compound 7, 2,2-Dimethyl-5-(4-nitrobenzoyl)-4,6-dioxycyclohexane methyl carboxylate]
- IC50 (4-HPPD; [5]): no inhibition
- LD50 24 hours ([1]; human, 24 h): 0.63 ± 0.12 mM
- LD50 144 hours ([1]; human, 144 h): >1 mM [c]

SMILES: Cc1cc(C2C(=O)C(C(=O)c3ccc(Cl)cc3)C(=O)CC2(C)C)on1 (centres unmarked) [Compound 10, 2-(4-chlorobenzoyl)-5,5-dimethyl-4-(3-methyl-isoxazol-5-yl)-cyclohexane-1,3-dione]
- IC50 (4-HPPD; [3]): 59900 ± 1800 nM
- LD50 24 hours ([1]; human, 24 h): >1 mM [c]
- LD50 144 hours ([1]; human, 144 h): 0.82 ± 0.20 mM

Reference: patent EP3419609B1, “TREATMENT OF ALKAPTONURIA AND TYROSINEMIA TYPE 1” (Università degli Studi di Siena, priority 2016, dated 2017)
